What was measured:
[1] = tested on: caecal microbiota; experiment: 16S rRNA gene sequencing, microbiota composition in the caecum; assay type: in vivo, Ross 308 broiler chickens
[2] = tested on: ileal microbiota; experiment: 16S rRNA gene sequencing, microbiota composition in the ileum; assay type: in vivo, Ross 308 broiler chickens
[3] = 0.1 g berberine/kg feed vs normal diet, 21 days, LinDA-normalized abundance
[4] = 0.1 g berberine/kg feed, 21 days
[5] = 0.5 g berberine/kg feed vs normal diet, 21 days, LinDA-normalized abundance
[6] = 0.5 g berberine/kg feed, 21 days
[7] = 1 g berberine/kg feed vs normal diet, 21 days, LinDA-normalized abundance

SMILES: COc1ccc2cc3[n+](cc2c1OC)CCc1cc2c(cc1-3)OCO2 [Berberine, Berberine chloride]
- L2 FC ASF356, 0.1 vs 0 [1, 3]: 3.88
- L2 FC CHKCI001, 0.1 vs 0 [1, 3]: 1.33
- L2 FC Family_ Lachnospiraceae, 0.1 vs 0 [1, 3]: -0.10
- L2 FC Fusicatenibacter, 0.1 vs 0 [1, 3]: 1.41
- L2 FC uncultured genus of Peptostreptococcaceae, 0.1 vs 0 [1, 3]: 0.26
- Mean relative abundance (%) ASF356 [1, 4]: 0.40%
- Mean relative abundance (%) CHKCI001 [1, 4]: 0.02%
- Mean relative abundance (%) Family_ Lachnospiraceae [1, 4]: 2.08%
- Mean relative abundance (%) Fusicatenibacter [1, 4]: 0.06%
- Mean relative abundance (%) uncultured genus of Peptostreptococcaceae [1, 4]: 0.63%
- Mean relative abundance of Peptostreptococcaceae [1, 4]: 0.66%
- L2FC of LinDA-normalized abundance of Peptostreptococcaceae ([1]; 0.1 vs 0 g berberine/kg feed): 0.02
- L2 FC ASF356, 0.5 vs 0 [1, 5]: 4.47
- L2 FC CHKCI001, 0.5 vs 0 [1, 5]: 2.34
- L2 FC Family_ Lachnospiraceae, 0.5 vs 0 [1, 5]: 1.25
- L2 FC Fusicatenibacter, 0.5 vs 0 [1, 5]: 3.47
- L2 FC uncultured genus of Peptostreptococcaceae, 0.5 vs 0 [1, 5]: -0.52
- Mean relative abundance (%) ASF356 [1, 6]: 0.38%
- Mean relative abundance (%) CHKCI001 [1, 6]: 0.03%
- Mean relative abundance (%) Family_ Lachnospiraceae [1, 6]: 5.61%
- Mean relative abundance (%) Fusicatenibacter [1, 6]: 0.32%
- Mean relative abundance (%) uncultured genus of Peptostreptococcaceae [1, 6]: 0.54%
- Mean relative abundance of Peptostreptococcaceae [1, 6]: 0.56%
- L2FC of LinDA-normalized abundance of Peptostreptococcaceae ([1]; 0.5 vs 0 g berberine/kg feed): -0.55
- L2 FC ASF356, 1 vs 0 [1, 7]: 3.78
- L2 FC CHKCI001, 1 vs 0 [1, 7]: 1.13
- L2 FC Family_ Lachnospiraceae, 1 vs 0 [1, 7]: 0.72
- L2 FC Fusicatenibacter, 1 vs 0 [1, 7]: 2.41
- L2 FC uncultured genus of Peptostreptococcaceae, 1 vs 0 [1, 7]: -8.12
- Mean relative abundance (%) ASF356 ([1]; 1 g berberine/kg feed, 21 days): 0.32%
- Mean relative abundance (%) CHKCI001 ([1]; 1 g berberine/kg feed, 21 days): 0.02%
- Mean relative abundance (%) Family_ Lachnospiraceae ([1]; 1 g berberine/kg feed, 21 days): 5.61%
- Mean relative abundance (%) Fusicatenibacter ([1]; 1 g berberine/kg feed, 21 days): 0.12%
- Mean relative abundance (%) uncultured genus of Peptostreptococcaceae ([1]; 1 g berberine/kg feed, 21 days): 0.00%
- Mean relative abundance of Peptostreptococcaceae ([1]; 1 g berberine/kg feed, 21 days): 0.00%
- L2FC of LinDA-normalized abundance of Peptostreptococcaceae ([1]; 1 vs 0 g berberine/kg feed): -7.85
- Observed number of OTUs ([1]; lowest concentration (0.1 g/kg feed), p = 0.041): significantly increased
- Bacterial richness (Observed number of OTUs) ([1]; middle concentration (0.5 g/kg feed), p = 0.087): tended to increase
- L2 FC Cronobacter, 0.1 vs 0 [2, 3]: 0.38
- L2 FC Curtobacterium, 0.1 vs 0 [2, 3]: -0.49
- L2 FC Faecalibacterium, 0.1 vs 0 [2, 3]: 1.89
- L2 FC Family_ Peptostreptococcaceae, 0.1 vs 0 [2, 3]: 2.07
- L2 FC Glutamicibacter, 0.1 vs 0 [2, 3]: 0.33
- L2 FC Lachnoclostridium 5, 0.1 vs 0 [2, 3]: 0.40
- L2 FC Ralstonia, 0.1 vs 0 [2, 3]: -0.96
- L2 FC Romboutsia, 0.1 vs 0 [2, 3]: 2.23
- L2 FC Serratia, 0.1 vs 0 [2, 3]: 0.03
- L2 FC Tyzzerella, 0.1 vs 0 [2, 3]: 0.06
- L2 FC uncultured genus of Mollicutes RF39, 0.1 vs 0 [2, 3]: 0.63
- L2 FC uncultured genus of Peptostreptococcaceae, 0.1 vs 0 [2, 3]: 1.99
- Mean relative abundance (%) Cronobacter [2, 4]: 0.00%
- Mean relative abundance (%) Curtobacterium [2, 4]: 0.01%
- Mean relative abundance (%) Faecalibacterium [2, 4]: 0.02%
- Mean relative abundance (%) Family_ Peptostreptococcaceae [2, 4]: 0.37%
- Mean relative abundance (%) Glutamicibacter [2, 4]: 0.01%
- Mean relative abundance (%) Lachnoclostridium 5 [2, 4]: 0.00%
- Mean relative abundance (%) Ralstonia [2, 4]: 0.04%
- Mean relative abundance (%) Romboutsia [2, 4]: 0.24%
- Mean relative abundance (%) Serratia [2, 4]: 0.00%
- Mean relative abundance (%) Tyzzerella [2, 4]: 0.00%
- Mean relative abundance (%) uncultured genus of Mollicutes RF39 [2, 4]: 0.00%
- Mean relative abundance (%) uncultured genus of Peptostreptococcaceae [2, 4]: 38.50%
- Mean relative abundance of Lachnospiraceae [2, 4]: 2.54%
- Mean relative abundance of Peptostreptococcaceae [2, 4]: 39.1%
- Mean relative abundance of Ruminococcaceae [2, 4]: 1.35%
- L2FC of LinDA-normalized abundance of Lachnospiraceae ([2]; 0.1 vs 0 g berberine/kg feed): -0.49
- L2FC of LinDA-normalized abundance of Peptostreptococcaceae ([2]; 0.1 vs 0 g berberine/kg feed): 1.55
- L2FC of LinDA-normalized abundance of Ruminococcaceae ([2]; 0.1 vs 0 g berberine/kg feed): 0.41
- L2 FC Cronobacter, 0.5 vs 0 [2, 5]: -0.95

— article PMC10733463, “Berberine-microbiota interplay: orchestrating gut health through modulation of the gut microbiota and metabolic transformation into bioactive metabolites” (Frontiers in Pharmacology, 2023)
